# Data published in ChEMBL document CHEMBL1201862, “PubChem BioAssay data set” (2004).
# The source made the active and inactive calls.
# Experiments:
# [1] = target: T1, Corticotropin-releasing factor receptor 2/Corticotropin-releasing factor-binding protein (Homo sapiens, UniProt P24387+Q13324); assay: activators of CRF receptor 2 with binding protein – uHTS hits, confirmation (AID 602473); type: functional; settings: read-out: EC50_Mean
# T1 sequence (Q13324 whole entry): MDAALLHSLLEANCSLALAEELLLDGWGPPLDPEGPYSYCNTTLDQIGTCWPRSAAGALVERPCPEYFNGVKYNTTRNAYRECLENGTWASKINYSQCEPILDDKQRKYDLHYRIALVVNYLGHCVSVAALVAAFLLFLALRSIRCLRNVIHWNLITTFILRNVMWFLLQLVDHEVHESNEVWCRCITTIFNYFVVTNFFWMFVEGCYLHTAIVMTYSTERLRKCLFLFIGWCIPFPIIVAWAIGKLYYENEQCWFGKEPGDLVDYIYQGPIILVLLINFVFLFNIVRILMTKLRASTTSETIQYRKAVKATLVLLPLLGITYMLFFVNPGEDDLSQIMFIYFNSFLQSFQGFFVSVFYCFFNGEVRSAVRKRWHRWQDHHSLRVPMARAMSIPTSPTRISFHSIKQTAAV
# T1 sequence (P24387 whole entry): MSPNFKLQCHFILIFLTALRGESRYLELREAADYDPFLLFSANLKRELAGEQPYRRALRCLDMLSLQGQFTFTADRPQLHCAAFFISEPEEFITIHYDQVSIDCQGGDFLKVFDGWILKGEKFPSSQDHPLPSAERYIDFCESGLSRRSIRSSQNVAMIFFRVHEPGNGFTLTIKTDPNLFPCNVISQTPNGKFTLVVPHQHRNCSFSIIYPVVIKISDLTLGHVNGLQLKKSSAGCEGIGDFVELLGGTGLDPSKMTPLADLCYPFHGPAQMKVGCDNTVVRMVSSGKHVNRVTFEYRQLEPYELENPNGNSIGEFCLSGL
# [2] = target: T2, Small ubiquitin-related modifier 1 (Homo sapiens, UniProt P63165); assay: SUMO1 protein interaction blockers, potency – biochemical, fluorescence polarization, uHTS hits, dose response (AID 624382); type: functional; settings: read-out: IC50_Mean
# [3] = target: T2, Small ubiquitin-related modifier 1; assay: SUMO1 protein-protein binding blockers, potency – biochemical, FRET, dose response (AID 624383); type: functional; settings: read-out: IC50_Mean
# [4] = target: T3, Methionyl-tRNA synthetase, putative (Trypanosoma brucei brucei, UniProt Q38C91); type: functional, Trypanosoma brucei brucei strain 927/4 GUTat10.1
# T3 sequence (Q38C91 whole entry): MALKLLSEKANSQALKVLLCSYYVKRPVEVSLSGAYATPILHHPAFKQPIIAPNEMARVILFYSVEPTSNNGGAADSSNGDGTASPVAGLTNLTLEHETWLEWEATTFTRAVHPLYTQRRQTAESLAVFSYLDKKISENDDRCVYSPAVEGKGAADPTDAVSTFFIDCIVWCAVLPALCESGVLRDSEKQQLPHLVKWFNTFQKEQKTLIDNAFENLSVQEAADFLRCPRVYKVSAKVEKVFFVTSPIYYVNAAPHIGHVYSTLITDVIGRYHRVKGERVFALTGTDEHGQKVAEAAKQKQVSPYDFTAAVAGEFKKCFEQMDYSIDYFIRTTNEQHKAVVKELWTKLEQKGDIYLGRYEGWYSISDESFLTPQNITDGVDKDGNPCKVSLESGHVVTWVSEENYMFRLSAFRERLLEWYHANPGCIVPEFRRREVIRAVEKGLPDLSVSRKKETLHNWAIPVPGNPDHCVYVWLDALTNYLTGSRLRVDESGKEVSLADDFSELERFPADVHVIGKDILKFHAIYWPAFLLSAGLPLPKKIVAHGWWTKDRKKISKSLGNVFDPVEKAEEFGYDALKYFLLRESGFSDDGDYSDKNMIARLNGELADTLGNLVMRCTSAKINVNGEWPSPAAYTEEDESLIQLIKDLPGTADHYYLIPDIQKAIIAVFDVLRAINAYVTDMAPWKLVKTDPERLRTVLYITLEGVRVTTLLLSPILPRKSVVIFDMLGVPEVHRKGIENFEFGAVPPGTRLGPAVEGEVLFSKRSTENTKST
# [5] = Counterscreen for inhibitors of Trypanosoma brucei methionyl tRNA synthetase (MetRS): Luminescence-based cell-based high throughput dose response assay to identify compounds that are cytotoxic to Jurkat human T lymphocyte cells.; type: functional
# [6] = target: T3, Methionyl-tRNA synthetase, putative; type: functional, Trypanosoma brucei brucei strain 927/4 GUTat10.1; remark: listed apart in the source
# [7] = target: T4, Heat shock factor protein 1 (Mus musculus, UniProt P38532); assay: enhancement of HSF1-driven luciferase signal – cell-based, NIH3T3, luminescence, dose retest, confirmation (AID 435004); type: functional;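 further: stress induced by proteasome inhibitor MG132 added 30 min after compound; luciferase reporter driven by HSF1 response element in NIH3T3 cells; actives raise luminescence as potentiators of the MG132 stress response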
# T4 sequence (P38532 whole entry): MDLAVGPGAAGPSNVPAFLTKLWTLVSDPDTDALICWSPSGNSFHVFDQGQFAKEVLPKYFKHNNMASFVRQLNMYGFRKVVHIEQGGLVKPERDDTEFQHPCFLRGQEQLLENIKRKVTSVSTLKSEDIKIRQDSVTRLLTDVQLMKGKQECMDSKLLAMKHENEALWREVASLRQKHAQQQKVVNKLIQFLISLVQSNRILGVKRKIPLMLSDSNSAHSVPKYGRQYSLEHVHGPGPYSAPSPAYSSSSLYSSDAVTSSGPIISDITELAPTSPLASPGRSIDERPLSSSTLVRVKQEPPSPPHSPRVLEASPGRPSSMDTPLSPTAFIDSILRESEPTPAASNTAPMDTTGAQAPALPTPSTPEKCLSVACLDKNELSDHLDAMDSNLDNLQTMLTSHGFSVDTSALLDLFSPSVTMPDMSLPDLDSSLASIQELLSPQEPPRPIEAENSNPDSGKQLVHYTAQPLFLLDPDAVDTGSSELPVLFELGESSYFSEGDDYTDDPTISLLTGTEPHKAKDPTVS
# [8] = target: Mu-type opioid receptor (Homo sapiens, UniProt P35372); type: functional, cell-based;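 further: U2OS cells with beta-arrestin recruitment to OPRM1 by beta-gal complementation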
# [9] = target: 5-hydroxytryptamine receptor 2A (Mus musculus, UniProt P35363); type: functional, cell-based;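 further: CHO-K1 cells with tagged receptor and beta-arrestin; agonist potency measured as compound-induced activation of the receptor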
# [10] = cytotoxicity in HEK293 background cells – cell-based, dry powder, set 2, counter-screen for EBV LMP1 inhibitor project, dose response (AID 624374); type: functional
# [11] = NIH-3T3 fibroblast cytotoxicity, dose response, cytotoxicity control, cell-based, fluorescence, Alamar Blue, secondary assay (AID 2327); type: functional;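 further: NIH-3T3 mouse fibroblasts cultured with fluconazole at 8 µg/mL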
# [12] = fluconazole-exposed Candida albicans growth modulators – fluorescence, retest, confirmation (AID 2467); type: functional, cell-based
# [13] = target: T5, Sentrin-specific protease 1 (Homo sapiens, UniProt Q9P0U3); assay: SENP1 catalytic domain blockers, concentration series – biochemical, kinetic FRET, dose response (AID 651697); type: functional; settings: read-out: IC50_Mean
# T5 sequence (Q9P0U3 whole entry): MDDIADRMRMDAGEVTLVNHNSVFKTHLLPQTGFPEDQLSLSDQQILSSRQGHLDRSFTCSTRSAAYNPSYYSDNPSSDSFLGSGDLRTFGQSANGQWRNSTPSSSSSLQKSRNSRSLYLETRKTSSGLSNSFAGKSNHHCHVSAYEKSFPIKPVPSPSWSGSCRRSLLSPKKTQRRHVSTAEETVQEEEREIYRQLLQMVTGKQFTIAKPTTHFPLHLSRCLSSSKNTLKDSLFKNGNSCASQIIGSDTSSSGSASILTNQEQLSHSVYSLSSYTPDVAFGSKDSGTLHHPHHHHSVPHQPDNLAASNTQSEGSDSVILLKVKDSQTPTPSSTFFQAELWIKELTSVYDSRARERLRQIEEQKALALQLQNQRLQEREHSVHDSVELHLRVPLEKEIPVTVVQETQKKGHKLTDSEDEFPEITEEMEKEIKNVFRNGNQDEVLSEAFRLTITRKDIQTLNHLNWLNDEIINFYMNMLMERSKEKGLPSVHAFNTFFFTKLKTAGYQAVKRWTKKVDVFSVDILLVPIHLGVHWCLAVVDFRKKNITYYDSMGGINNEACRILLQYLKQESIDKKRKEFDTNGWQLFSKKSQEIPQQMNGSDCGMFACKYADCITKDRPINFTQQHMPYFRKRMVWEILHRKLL
# [14] = target: T5, Sentrin-specific protease 1; assay: Dose response confirmation of small molecule inhibitors of the catalytic domain of the SUMO protease, SENP1 in a FRET assay.; type: functional; settings: read-out: IC50_Mean
# [15] = target: ADP-ribosylation factor GTPase-activating protein 1 (Rattus norvegicus, UniProt Q62848); assay: Fluorescence polarization-based biochemical high throughput dose response screening assay to identify inhibitors of ADP-ribosylation factor GTPase activating protein 1 (ARFGAP1).; type: functional
# [16] = system: A549; assay: viability loss in A549 cells – cell-based, plate reader, cherry-pick samples, cytotoxicity control, dose response (AID 687028); type: functional; settings: Homo sapiens
# [17] = target: Albumin (Bos taurus, UniProt P02769); assay: Counterscreen for inhibitors of T-cell receptor (TCR)-CD3 interaction: Fluorescence-based biochemical high throughput dose response assay to identify inhibitors of T-cell receptor (TCR)-CD3 interaction using a TAMRA-labeled BSA probe.; type: functional
# [18] = target: T6, Rac GTPase-activating protein 1 (Homo sapiens, UniProt Q9H0H5); assay: blockers of MgcRacGAP-driven Rac1 GTP hydrolysis – biochemical, ADP Hunter fluorescence, primary and confirmatory, confirmation (AID 624330); type: functional
# T6 sequence (Q9H0H5 whole entry): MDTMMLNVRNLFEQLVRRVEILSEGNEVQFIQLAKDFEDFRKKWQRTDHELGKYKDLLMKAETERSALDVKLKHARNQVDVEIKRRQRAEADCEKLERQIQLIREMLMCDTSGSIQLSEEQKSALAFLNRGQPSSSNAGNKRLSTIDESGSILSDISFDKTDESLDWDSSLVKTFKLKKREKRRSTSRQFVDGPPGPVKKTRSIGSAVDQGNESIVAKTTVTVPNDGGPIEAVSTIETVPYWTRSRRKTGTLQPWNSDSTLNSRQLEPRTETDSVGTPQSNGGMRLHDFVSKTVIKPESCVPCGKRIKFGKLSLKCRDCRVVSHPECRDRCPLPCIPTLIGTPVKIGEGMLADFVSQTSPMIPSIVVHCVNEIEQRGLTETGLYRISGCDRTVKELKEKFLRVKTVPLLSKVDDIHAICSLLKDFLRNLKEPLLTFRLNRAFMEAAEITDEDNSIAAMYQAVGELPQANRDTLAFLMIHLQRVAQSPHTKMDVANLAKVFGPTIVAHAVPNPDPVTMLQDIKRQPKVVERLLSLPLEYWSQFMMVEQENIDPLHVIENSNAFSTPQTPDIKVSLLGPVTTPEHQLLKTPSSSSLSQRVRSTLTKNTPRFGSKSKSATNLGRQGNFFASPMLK
# [19] = target: Large T antigen (Simian virus 40, UniProt P03070); type: functional, Betapolyomavirus macacae;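 further: Confirmatory-stage PubChem screen for compounds that inhibit SV40 T antigen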
# [20] = target: FAD-linked sulfhydryl oxidase ALR (Homo sapiens, UniProt P55789); assay: ALR-catalysed DTT oxidation blockers – biochemical, H2O2 detection, luminescence, cherry-pick, dose response (AID 493248)
# [21] = target: Cytochrome P450 2C19 (Homo sapiens, UniProt P33261); assay: Cytochrome panel assay with activity outcomes. Panel member name: p450-cyp2c19 Compounds with AC50 equal or less than 10 uM are considered active; type: functional; settings: read-out: AC50
# [22] = target: SWI/SNF-related matrix-associated actin-dependent regulator of chromatin subfamily A member 2 (Homo sapiens, UniProt P51531); assay: Luminescence-based cell-based high throughput dose response assay to identify activators of the function of SWI/SNF related, matrix associated, actin dependent regulator of chromatin, subfamily a, member 2 (SMARCA2, BRM).; type: functional
# [23] = Counterscreen for activators of the function of SWI/SNF related, matrix associated, actin dependent regulator of chromatin, subfamily a, member 2 (SMARCA2, BRM): Luminescence-based cell-based high throughput dose response assay to identify non-selective compounds using the VP16 reporter assay.; type: functional
# Sequence of Albumin (P02769 whole entry): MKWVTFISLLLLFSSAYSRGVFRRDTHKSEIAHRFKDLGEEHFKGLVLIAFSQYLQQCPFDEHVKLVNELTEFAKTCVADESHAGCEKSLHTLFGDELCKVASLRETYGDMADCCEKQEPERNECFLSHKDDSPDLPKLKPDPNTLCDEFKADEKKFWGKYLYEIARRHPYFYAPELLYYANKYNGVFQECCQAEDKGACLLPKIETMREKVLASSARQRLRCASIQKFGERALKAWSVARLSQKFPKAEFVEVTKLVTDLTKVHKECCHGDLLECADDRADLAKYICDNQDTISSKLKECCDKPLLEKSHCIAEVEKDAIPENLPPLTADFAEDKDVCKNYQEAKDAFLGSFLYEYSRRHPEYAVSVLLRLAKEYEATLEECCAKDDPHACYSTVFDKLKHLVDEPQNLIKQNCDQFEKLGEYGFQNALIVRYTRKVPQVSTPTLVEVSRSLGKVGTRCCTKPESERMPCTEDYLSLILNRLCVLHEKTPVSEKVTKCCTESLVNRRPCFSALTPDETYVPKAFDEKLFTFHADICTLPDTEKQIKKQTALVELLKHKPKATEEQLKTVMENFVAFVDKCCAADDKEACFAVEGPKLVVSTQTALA
# Sequence of 5-hydroxytryptamine receptor 2A (P35363 whole entry): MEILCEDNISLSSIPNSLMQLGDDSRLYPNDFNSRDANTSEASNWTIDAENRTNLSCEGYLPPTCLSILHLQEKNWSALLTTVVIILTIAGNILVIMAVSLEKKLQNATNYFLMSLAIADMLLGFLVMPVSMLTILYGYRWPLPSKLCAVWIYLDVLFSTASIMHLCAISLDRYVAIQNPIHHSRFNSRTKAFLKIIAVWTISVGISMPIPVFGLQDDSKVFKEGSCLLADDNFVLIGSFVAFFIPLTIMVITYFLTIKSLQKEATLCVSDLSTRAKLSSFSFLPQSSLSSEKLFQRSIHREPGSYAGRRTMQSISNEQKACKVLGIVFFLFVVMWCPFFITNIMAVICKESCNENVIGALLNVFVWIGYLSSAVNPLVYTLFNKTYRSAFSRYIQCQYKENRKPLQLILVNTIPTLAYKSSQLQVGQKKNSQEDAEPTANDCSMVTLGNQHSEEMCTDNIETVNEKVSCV
# T2 sequence (P63165 whole entry): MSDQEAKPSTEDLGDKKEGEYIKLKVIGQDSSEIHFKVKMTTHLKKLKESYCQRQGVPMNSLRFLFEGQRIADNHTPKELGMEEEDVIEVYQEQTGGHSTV
# Sequence of ADP-ribosylation factor GTPase-activating protein 1 (Q62848 whole entry): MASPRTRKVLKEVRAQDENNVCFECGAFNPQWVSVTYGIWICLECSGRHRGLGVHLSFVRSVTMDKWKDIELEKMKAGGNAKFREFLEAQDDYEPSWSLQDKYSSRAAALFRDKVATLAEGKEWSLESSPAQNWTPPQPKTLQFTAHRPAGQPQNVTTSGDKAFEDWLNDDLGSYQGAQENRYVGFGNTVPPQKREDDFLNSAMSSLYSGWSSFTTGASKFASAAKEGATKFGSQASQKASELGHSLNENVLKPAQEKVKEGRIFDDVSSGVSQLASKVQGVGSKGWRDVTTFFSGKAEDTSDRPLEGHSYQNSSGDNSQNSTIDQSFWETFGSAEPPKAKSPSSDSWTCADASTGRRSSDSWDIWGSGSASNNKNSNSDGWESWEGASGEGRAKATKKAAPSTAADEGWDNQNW
# Sequence of Mu-type opioid receptor (P35372 whole entry): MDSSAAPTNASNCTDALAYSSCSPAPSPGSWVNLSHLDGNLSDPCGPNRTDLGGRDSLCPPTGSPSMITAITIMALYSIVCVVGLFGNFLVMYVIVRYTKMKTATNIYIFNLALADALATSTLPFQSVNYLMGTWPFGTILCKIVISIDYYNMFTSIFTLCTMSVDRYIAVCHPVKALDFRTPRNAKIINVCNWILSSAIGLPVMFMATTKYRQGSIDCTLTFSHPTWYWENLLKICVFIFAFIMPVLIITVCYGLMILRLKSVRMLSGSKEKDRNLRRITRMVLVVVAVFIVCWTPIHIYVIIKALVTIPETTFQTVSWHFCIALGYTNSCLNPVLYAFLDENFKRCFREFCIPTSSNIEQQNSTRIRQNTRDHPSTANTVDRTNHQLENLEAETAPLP
# Sequence of Cytochrome P450 2C19 (P33261 whole entry): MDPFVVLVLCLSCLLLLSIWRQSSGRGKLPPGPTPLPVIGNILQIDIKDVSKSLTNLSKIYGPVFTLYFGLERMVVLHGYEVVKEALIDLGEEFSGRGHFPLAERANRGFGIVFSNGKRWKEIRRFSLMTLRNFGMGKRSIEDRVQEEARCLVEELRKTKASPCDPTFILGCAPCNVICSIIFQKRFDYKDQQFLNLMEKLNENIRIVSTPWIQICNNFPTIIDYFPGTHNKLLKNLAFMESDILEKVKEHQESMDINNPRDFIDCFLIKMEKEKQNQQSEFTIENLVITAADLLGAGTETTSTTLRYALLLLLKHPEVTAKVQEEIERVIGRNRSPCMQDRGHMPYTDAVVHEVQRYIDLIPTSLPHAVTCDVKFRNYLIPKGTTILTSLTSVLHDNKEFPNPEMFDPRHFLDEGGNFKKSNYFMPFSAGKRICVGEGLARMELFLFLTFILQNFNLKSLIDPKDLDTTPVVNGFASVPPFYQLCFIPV
# Sequence of SWI/SNF-related matrix-associated actin-dependent regulator of chromatin subfamily A member 2 (P51531 whole entry): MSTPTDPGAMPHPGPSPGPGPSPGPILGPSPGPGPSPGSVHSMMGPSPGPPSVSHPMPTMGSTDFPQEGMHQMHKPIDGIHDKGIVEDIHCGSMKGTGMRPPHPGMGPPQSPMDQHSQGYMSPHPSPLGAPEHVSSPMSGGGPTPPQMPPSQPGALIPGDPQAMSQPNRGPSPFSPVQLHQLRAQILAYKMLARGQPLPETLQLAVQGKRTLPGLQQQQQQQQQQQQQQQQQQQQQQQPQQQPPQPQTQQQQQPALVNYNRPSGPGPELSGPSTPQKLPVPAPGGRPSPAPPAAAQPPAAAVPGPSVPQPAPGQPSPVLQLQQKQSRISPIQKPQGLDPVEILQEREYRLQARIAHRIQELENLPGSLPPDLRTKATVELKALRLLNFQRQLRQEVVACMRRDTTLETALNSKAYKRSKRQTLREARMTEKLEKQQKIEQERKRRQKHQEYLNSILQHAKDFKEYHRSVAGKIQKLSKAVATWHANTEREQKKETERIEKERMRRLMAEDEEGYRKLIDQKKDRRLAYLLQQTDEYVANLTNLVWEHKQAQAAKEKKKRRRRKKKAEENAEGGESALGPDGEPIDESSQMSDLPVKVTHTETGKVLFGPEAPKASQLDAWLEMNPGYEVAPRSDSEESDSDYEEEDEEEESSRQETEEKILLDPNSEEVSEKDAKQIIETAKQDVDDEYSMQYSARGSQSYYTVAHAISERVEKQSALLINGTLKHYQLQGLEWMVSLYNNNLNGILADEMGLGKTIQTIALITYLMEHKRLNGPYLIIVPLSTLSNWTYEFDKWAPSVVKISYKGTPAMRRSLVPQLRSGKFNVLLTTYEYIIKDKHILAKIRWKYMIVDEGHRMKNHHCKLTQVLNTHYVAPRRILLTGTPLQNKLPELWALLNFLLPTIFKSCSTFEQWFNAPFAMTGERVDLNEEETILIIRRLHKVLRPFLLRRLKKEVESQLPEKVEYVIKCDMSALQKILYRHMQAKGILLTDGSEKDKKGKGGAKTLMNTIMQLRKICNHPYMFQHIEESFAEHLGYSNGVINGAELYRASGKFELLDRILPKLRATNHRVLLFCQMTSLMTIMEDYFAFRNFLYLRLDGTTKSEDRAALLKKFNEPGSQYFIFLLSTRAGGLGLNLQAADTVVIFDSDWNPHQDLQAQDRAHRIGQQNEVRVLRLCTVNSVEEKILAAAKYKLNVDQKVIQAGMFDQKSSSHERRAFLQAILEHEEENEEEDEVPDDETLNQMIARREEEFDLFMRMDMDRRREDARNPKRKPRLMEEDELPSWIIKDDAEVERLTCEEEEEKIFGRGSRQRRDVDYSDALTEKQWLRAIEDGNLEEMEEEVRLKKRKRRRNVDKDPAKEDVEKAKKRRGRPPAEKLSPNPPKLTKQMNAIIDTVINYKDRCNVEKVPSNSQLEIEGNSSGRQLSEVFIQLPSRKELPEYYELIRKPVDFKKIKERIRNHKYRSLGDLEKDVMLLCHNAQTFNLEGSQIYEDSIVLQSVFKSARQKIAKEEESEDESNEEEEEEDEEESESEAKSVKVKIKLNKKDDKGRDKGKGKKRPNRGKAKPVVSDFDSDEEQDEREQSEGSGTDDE
# Sequence of FAD-linked sulfhydryl oxidase ALR (P55789 whole entry): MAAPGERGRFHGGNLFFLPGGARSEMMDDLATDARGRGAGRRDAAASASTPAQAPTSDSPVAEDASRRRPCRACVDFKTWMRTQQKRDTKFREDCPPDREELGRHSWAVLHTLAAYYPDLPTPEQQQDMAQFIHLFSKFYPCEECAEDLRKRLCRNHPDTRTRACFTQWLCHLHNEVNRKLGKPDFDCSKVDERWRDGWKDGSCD
# Sequence of Large T antigen (P03070 whole entry): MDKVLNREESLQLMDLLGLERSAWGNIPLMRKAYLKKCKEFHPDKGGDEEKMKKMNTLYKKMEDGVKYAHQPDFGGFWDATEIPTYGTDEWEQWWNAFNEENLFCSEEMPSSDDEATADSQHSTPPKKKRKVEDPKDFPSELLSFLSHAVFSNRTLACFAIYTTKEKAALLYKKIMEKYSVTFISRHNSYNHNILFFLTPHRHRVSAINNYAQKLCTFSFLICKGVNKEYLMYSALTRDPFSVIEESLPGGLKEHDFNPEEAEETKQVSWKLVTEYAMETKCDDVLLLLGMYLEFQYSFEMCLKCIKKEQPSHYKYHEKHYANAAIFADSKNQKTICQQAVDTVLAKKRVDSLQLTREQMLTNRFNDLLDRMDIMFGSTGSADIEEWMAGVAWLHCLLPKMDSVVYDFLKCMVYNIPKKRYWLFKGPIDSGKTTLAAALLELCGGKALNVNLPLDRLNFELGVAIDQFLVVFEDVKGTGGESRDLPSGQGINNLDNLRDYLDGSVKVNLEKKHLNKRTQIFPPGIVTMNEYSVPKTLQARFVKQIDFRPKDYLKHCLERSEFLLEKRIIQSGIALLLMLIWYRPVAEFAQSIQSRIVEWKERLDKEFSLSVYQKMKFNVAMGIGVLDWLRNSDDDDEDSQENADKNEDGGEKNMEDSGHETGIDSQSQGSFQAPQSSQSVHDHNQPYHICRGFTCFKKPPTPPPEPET
smiles,measurement,setting,value
COC(=O)c1ccc2c(c1)C(=O)/C(=C/c1ccc(O)cc1)O2,EC50,[1],> 53 µM (inactive)
same,IC50,[2],> 66.6 µM (inactive)
same,IC50,[3],7.4 µM (active)
C[C@H](O)[C@@H]1CN2CCc3c([nH]c4ccccc34)[C@@H]2C[C@@H]1N(C)C(=O)Nc1cc(Cl)cc(Cl)c1,IC50,[4],14.9 µM (inactive)
same,IC50,[5],15.8 µM (inactive)
same,IC50,[6],8.53 µM (active)
CC(CCc1ccccc1)NC(=O)CN1CCc2ccccc2C1 (centres undefined),EC50,[7],> 260 µM (inactive)
same,EC50,[8],92.5 µM (inactive)
same,EC50,[9],76.1 µM (inactive)
O=C(Cc1ccccn1)NCC[C@@H]1CC[C@@H](NC(=O)Nc2ccc(Cl)cc2)[C@H](CO)O1,AbsAC35,[10],175.41 µM
CCOc1cc(/C=C2\SC(=S)N(NS(=O)(=O)c3ccccc3)C2=O)ccc1O,EC50,[11],> 150 µM (inactive)
same,EC50,[12],1.88 µM (active)
same,IC50,[13],3.73 µM (active)
same,IC50,[4],122 µM (inactive)
same,IC50,[5],83.3 µM (inactive)
same,IC50,[6],41.8 µM (inactive)
same,IC50,[14],2.41 µM (active)
C=CCNc1nc(NCCOC)c2sc(-c3ccccc3)cc2n1,IC50,[15],101 µM (inactive)
CC(C)(C)NC(=O)C(c1cccc2ccccc12)n1c(=O)c(-c2ccccc2)nc2ccccc21 (centres undefined),AC50,[16],8.91 µM (active)
Nc1ccc([N+](=O)[O-])cc1C(=O)NNC(=O)c1ccco1,IC50,[17],> 94.1 µM (inactive)
Cc1ccsc1CN1CCN(c2ccccn2)CC1,EC50,[8],92.5 µM (inactive)
same,EC50,[9],0.282 µM (active)
O=C(NCc1ccc2c(c1)OCO2)C(=O)NCC1OCCCN1S(=O)(=O)c1ccccc1 (centres undefined),AC50,[16],27.9 µM (active)
COc1cc(/C=C2\SC(=Nc3c(C)n(C)n(-c4ccccc4)c3=O)NC2=O)ccc1O,IC50,[13],15.5 µM (active)
same,IC50,[14],11.2 µM (active)
same,IC50,[18],38.7 µM (active)
Oc1ccc(/C=N/Nc2ncnc3c2ncn3Cc2ccccc2)cc1O,IC50,[19],3.87 µM (active)
same,AC50,[20],2.19 µM (active)
same,IC50,[18],23 µM (active)
same,IC50,[17],> 94.1 µM (inactive)
Cc1cccc(NC(=O)c2ccc([N+](=O)[O-])o2)n1,AC50,[21],20 µM (inconclusive)
same,EC50,[22],> 91.1 µM (inactive)
same,EC50,[23],> 91.1 µM (inactive)
COc1ccc2oc(C(=O)OCC(=O)N3CC(C)CC(C)C3)c(C)c2c1 (centres undefined),IC50,[15],44.9 µM (inactive)
